# Reference: patent US20220125893A1, “METHODS FOR TREATING ARTHRITIS USING SPL-108 PEPTIDE” (Splash Pharmaceuticals, Inc., priority 2019, published 2022)
# Tests used:
# [1] = system: fibroblast-like synoviocytes (FLSs); assay: In vitro Scratch migration assay of FLSs; type: cell-based; details: 0.1, 1.0, 10.0, 100 μM
# Procedure: Cells were grown to confluence and a thin “wound” was introduced by scratching with a pipette tip. Cells at the wound edge polarize and migrate into the wound space.
# [2] = system: arthritis-induced osteoclastogenesis; details: other animal studies; cited from earlier work
# [3] = system: CIA mice; assay: Collagen-induced arthritis (CIA) mouse model; type: in vivo
# Description: FIGS. 10A, 10B, 10C, 10D, and 10E show histology and histological scores in ankles collected at the end of the experiments. At the end of the experiment, ankle bones were collected and decalcified in EDTA for 10 days. Decalcified bones were embedded and sagittal sections obtained and stained. H&E staining was used to help score cell infiltration, synovial thickness, and bone damage (FIG. 10A). In the figure, safranin staining will help to score cartilage damage. Black arrows show infiltration in arthritic mice treated with PBS compared to control mice without arthritis. White arrows show lack of safranin staining in the arthritic mice cartilage because of proteoglycan degradation compared to control mice without arthritis.
# In the examples below, mice were used in a collagen-induced arthritis (CIA) model, a commonly used model to examine pathogenesis of rheumatoid arthritis. […] At day 0, mice were immunized with type II collagen/CFA. […] Arthritis onset subsequently occurs 4-10 days after the day 28 LPS injection. The experimental groups consisted of four groups: group 1: 6 CIA mice treated with vehicle; group 2: 6 CIA mice treated with […] SPL-108 twice a day, starting at arthritis onset (between day 32 to 36); group 3: 6 CIA mice treated with 100 mg/kg SPL-108 twice a day, starting at arthritis onset (between day 32 to 36); and group 4: 6 mice without CIA and not treated (negative control). In preventive strategies, a prophylactic treatment of SPL-108 would be started at day 0, at the time of first immunization.
# FIGS. 10A, 10B, 10C, 10D, and 10E show histological scores of ankle bones collected at the end of experiments. At the end of the experiment, ankles were collected and decalcified in EDTA for 10 days. They were embedded and sagittal sections were obtained and stained. H&E staining was used to help score cell infiltration, synovial thickness, and bone damage. In the figure, safranin staining will help to score cartilage damage. Black arrows show infiltration in arthritic mice treated with PBS compared to control mice without arthritis. White arrows show lack of safranin staining (red) in the arthritic mice cartilage because of proteoglycan degradation compared to control mice without arthritis.
# [4] = system: fibroblast-like synoviocytes (FLSs); assay: In vitro Matrigel invasion assay of FLSs; type: cell-based; details: 0.1, 1.0, 10.0, 100 μM; presence and absence of PDGF 10 ng/mL
# Procedure: FIG. 8A and FIG. 8B show the effects of SPL-108 (A6) on the invasion of FLSs using an in vitro Matrigel invasion assay. Platelet-derived growth factor (10 ng/mL) was used to stimulate invasion and the area of invasion was measured in […] before and after the addition of 0.1, 1.0, 10.0, and 100 μM SPL-108 (A6) in the presence and absence of PDGF.
# [5] = system: pre-existing osteoarthritis; assay: Osteoarthritis symptoms in ovarian cancer patients on SPL-108 plus paclitaxel; type: in vivo, human; details: two patients; SPL-108 150 mg twice a day with paclitaxel 80 mg/m^2 weekly on Days 1, 8, 15, three 28-day cycles
# Procedure: Two patients diagnosed with […] ovarian cancer, and enrolled in a clinical trial for evaluating the efficacy of SPL-108 in combination with paclitaxel (standard-of-care treatment), reported relief from symptoms of pre-existing osteoarthritis. Each patient received SPL-108 150 mg twice a day and Paclitaxel 80 mg/m^2 weekly on Days 1, 8, and 15, in three 28-day cycles. Each patient received a total of 25,200 mg of SPL-108 over the course of treatment.
# [6] = ankles at end of experiment, H&E staining
# [7] = either dose (50 or 100 mg/kg twice a day)
substance,measurement,setting,value
Ac-KPSSPPEE-NH2 [SPL-108],migration of FLSs into wound space,[1],inhibited the migration of FLSs in a dose-dependent manner
same,arthritis-induced osteoclastogenesis,[2],inhibited arthritis-induced osteoclastogenesis
same,"clinical score vs vehicle, significance",[3]; 50 mg/kg twice a day,"significantly different at day 4, 5, 6, 7"
same,"paw swelling vs vehicle, significance",[3]; 50 mg/kg twice a day,significantly different from day 11 to day 19
same,"body weight vs vehicle, significance",[3]; 50 mg/kg twice a day from arthritis onset,significantly different at day 7 and 9
same,"clinical score vs vehicle, significance",[3]; 100 mg/kg twice a day,significantly different from day 4 to day 20
same,"paw swelling vs vehicle, significance",[3]; 100 mg/kg twice a day,significantly different from day 11 to day 19
same,"body weight vs vehicle, significance",[3]; 100 mg/kg twice a day from arthritis onset,"significantly different at day 5, 7, 9 and 11"
same,body weight decrease,"[3]; CIA mice, through 11 days after disease onset, vehicle 3 grams decrease",~1 gram
same,bone damage (histological score),[3]; [6],reduction
same,synovial hypertrophy (histological score),[3]; [6],reduction
same,synovial infiltration (histological score),[3]; [6],reduction
same,cartilage damage (histological score),"[3]; ankles at end of experiment, safranin staining",reduction
same,clinical score compared to vehicle,[3]; [7],lower
same,paw swelling (paw size) compared to vehicle,[3]; [7],lower
same,invasion of FLSs (area of invasion),[4],inhibited the invasion of FLSs in a dose-dependent manner
same,improvement in osteoarthritis symptoms,[5],reduction to elimination of joint pain
